Data on one molecule can be found in publication PMC5513211, “PA-6 inhibits inward rectifier currents carried by V93I and D172N gain-of-function KIR2.1 channels, but increases channel protein expression” (Journal of Biomedical Science, 2017).

One test has as its target T1, D172N KIR2.1 (Homo sapiens, UniProt P63252, D172N).
T1 construct: expressed in transfected cells; host or cells: HEK293T
T1 sequence (P63252 1-427 D172N): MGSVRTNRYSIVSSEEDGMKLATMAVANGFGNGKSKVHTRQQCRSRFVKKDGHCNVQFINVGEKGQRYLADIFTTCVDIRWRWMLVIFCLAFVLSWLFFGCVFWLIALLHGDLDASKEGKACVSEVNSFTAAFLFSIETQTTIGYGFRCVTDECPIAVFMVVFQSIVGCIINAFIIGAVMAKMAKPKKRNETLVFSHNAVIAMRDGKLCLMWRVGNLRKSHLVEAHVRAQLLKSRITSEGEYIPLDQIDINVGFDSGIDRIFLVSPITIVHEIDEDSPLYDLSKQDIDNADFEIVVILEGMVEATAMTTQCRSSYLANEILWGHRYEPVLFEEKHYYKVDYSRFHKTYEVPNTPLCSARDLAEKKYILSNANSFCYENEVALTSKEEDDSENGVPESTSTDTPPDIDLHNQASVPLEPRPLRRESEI
The experiment in a line: Western blot of KIR2.1 expression, transiently transfected HEK293T cells, D172N. The class given is cell-based. The settings on record: 24 h. The protocol:
(§1) HEK293T cells were grown in 60 mm culture dishes containing 3 mL DMEM supplemented with 10% FCS, L-Glutamine and Pen-Strep, and transfected using linear polyethylenimine (PEI) (PolysciencesInc, Eppelheim, Germany) as described earlier. Cell lysates were prepared in buffer D (20 mM HEPES, 125 mM NaCl, 10% glycerol, 1 mM EDTA, 1 mM EGTA, 1 mM dithiothreitol, and 1% Triton X-100, pH 7.6, supplemented with 1 mM PMSF and 10 μg/mL aprotinin). 20 μg protein lysate was separated by 10% SDS-PAGE and blotted onto nitrocellulose membrane. Ponceau staining was used to reveal equal protein loading and subsequent quantification. Blots were blocked with 5% (v/v) […] in TBST (20 mM Tris-HCl pH 8.0, 150 mM NaCl, 0.05% (v/v) Tween-20) for 1 h at room temperature. KIR2.1 WT and mutants were detected by N-terminal KIR2.1 antibody (Santa Cruz Biotechnology, Dallas Tx, USA, cat. No. sc-18708) and peroxidase-conjugated donkey anti-goat secondary antibody (Jackson ImmunoResearch, West Grove, PA, cat. No. 705-035-003) followed by ECL detection procedure (GE Healthcare, Hoevelaken, The Netherlands). For quantification purposes, untransfected HEK293T cells were used as blank and protein levels were normalized to ponceau staining levels. Differences between group averages were tested by using a one-way ANOVA with a Bonferroni’s post-hoc test.
A general note: In western blotting, separated proteins are transferred to a membrane and probed.

Test [1] deals with WT KIR2.1. Conditions: 10 μM, cells stably expressing GFP-tagged KIR2.1; cited from earlier work.
The target in test [2] is T2, WT KIR2.1 (Homo sapiens, UniProt P63252).
T2 construct: expressed in transfected cells; host or cells: HEK293T
T2 sequence (P63252 1-427): T1 sequence (P63252 1-427 D172N) with N172D
Nature of the test: Whole cell patch clamp, WT KIR2.1 currents. In kind it is cell-based. Conditions: whole cell mode. The protocol: (§2) Mutations V93I and D172N were engineered into a human KCNJ2-pcDNA3 expression construct, using the QuikChange II XL Site-Directed Mutagenesis Kit (Stratagene, La Jolla, CA) and custom designed primers. The presence of the introduced mutations was confirmed by Sanger sequencing.
(§3) Whole cell patch clamp measurements were done as described before using an AxoPatch 200B amplifier controlled by pClamp9 software (Molecular devices, Sunnyvale, CA, USA) at 21 °C. Whole cell IKIR2.1 measurements were performed by applying 1 s test pulses ranging between −120 and +30 mV, in 10 mV increments, from a holding potential of −40 mV, and with series resistance compensation of at least 70%. Steady state current at the end of the pulse was normalized to cell capacitance and plotted versus test potential (corrected for liquid junction potential). Extracellular solution contained 140 mM NaCl, 5 mM KCl, 1 mM CaCl2, 1 mM MgCl2, 6 mM glucose, 17.5 mM NaHCO3, 15 mM HEPES, pH 7.4/NaOH. Pipette solution contained 125 mM potassium gluconate, 10 mM KCl, 5 mM HEPES, 5 mM EGTA, 2 mM MgCl2, 0.6 mM CaCl2, 4 mM Na2ATP, pH 7.20/KOH.
(In general: Patch clamp records ionic current or voltage across a cell membrane.)

The target of test [3] is T3, V93I KIR2.1 (Homo sapiens, UniProt P63252, V93I).
T3 construct: expressed in transfected cells; host or cells: HEK293T
T3 sequence (P63252 1-427 V93I): T1 sequence (P63252 1-427 D172N) with V93I, N172D
Nature of the test: Whole cell patch clamp, V93I KIR2.1 currents. In kind it is cell-based. The settings on record: whole cell mode. The protocol:
as §2, §3

Test [4] deals with T3, V93I KIR2.1. Nature of the test: Western blot of KIR2.1 expression, transiently transfected HEK293T cells, V93I. In kind it is cell-based. Conditions: 24 h. The protocol:
as §1

Where [5] appears, read: at −50 mV, read-out: Inhibition of outward IK1.
The mark [6] stands for this setting: at −110 mV, read-out: Inhibition of inward IK1.

Each structure is given as a SMILES string. Positions count from the first letter of the chain named. Where two headings read alike, the source gives them in different places.

Usually inhibition stands for the relative decrease from the control value, in per cent. Broadly, the IC50 is the midpoint of a concentration-inhibition curve. Lower therefore signals inhibition by little substance. Turning to `N=C(Nc1ccc(OCCCCCOc2ccc(NC(=N)c3ccccc3)cc2)cc1)c1ccccc1` [PA-6], the “Increase of KIR2.1 expression level” value on D172N KIR2.1 (5 μM) was found to be 4.8 ± 2.0 fold; at V93I KIR2.1 [4] (5 μM), 3.9 ± 0.9 fold. The “Effect on KIR2.1 expression level at lower concentrations” value is “did not result in significant increased expression” on D172N KIR2.1 (0.2 and 1 μM); “did not result in significant increased expression” at V93I KIR2.1 [4] (0.2 and 1 μM). For the same molecule, the “Effect on WT KIR2.1 expression” value in the test with WT KIR2.1 [1] was “able to enhance expression of WT KIR2.1”. For the same molecule, the inhibition at 1 µM on WT KIR2.1 [2] (setting [5]) came out at 28 ± 36%; at WT KIR2.1 [2] (setting [6]), 30 ± 16%; at V93I KIR2.1 [3] (setting [5]), 18 ± 20%; on V93I KIR2.1 [3] (setting [6]), 28 ± 14%. Moreover, the inhibition at 3 µM is 94 ± 6% at WT KIR2.1 [2] (setting [5]), 68 ± 15% at WT KIR2.1 [2] (setting [6]), 77 ± 29% on V93I KIR2.1 [3] (setting [5]) and 64 ± 4% at V93I KIR2.1 [3] (setting [6]). The IC50 at WT KIR2.1 [2] and against V93I KIR2.1 [3] was 1000 to 3000 nM throughout.
